# Data from ChEMBL document CHEMBL5252536, “Discovery of VU0467485/AZ13713945: An M4 PAM Evaluated as a Preclinical Candidate for the Treatment of Schizophrenia” (ACS Med Chem Lett, 2017).
# Legend:
# [1] = molecular target: T1, Muscarinic acetylcholine receptor M4 (Homo sapiens, UniProt P08173); assay: Positive allosteric modulator activity at human M4 receptor expressed in CHO cells co-expressing Gqi5 in presence of EC20 concentration of acetylcholine by calcium mobilization assay; type: cell-based
# T1 sequence (P08173 whole entry): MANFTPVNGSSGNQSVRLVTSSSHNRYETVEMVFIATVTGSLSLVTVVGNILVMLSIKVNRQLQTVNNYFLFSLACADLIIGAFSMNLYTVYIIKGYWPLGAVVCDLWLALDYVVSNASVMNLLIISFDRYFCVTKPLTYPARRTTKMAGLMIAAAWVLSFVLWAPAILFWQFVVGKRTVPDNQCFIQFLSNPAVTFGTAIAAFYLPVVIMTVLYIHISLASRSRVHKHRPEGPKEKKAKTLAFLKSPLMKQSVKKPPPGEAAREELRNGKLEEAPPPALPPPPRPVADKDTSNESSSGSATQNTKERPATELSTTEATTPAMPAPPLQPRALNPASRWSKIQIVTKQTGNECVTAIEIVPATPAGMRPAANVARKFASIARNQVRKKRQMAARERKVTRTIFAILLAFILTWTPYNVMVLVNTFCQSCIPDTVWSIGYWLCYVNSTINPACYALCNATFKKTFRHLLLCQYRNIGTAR
# [2] = molecular target: T2, Muscarinic acetylcholine receptor M4 (Homo sapiens) (UniProt P08173); assay: Positive allosteric modulator activity at human M4 receptor expressed in CHO cells co-expressing Gqi5 assessed as maximal response to ACh by calcium mobilization assay relative to contol; type: cell-based; settings: filed as positive allosteric modulator
# T2 sequence (whole entry): T1 sequence (P08173 whole entry)
SMILES,EC50 ([1]; read-out: EC50) [nM],Activity [2] [%],EC50 ([1]; read-out: pEC50 (converted)) [nM],pEC50 ([1]; cho)
COc1cc(F)c(CNC(=O)c2sc3nnc(C)c(C)c3c2N)c(F)c1,100,87.1,–,–
Cc1nnc2sc(C(=O)NCc3ccc(O)c(F)c3)c(N)c2c1C,59.1,83.1,60.3,–
COc1cc(F)c(CNC(=O)c2sc3nnc(C)c(C)c3c2N)cc1F,41.4,68.5,–,–
Cc1nnc2sc(C(=O)NCc3ccc(O)cc3)c(N)c2c1C,96.7,69.8,–,–
COc1ccc(CNC(=O)c2sc3nnc(C)c(C)c3c2N)c(F)c1F,43.4,71.2,–,–
COc1ccc(CNC(=O)c2sc3nnc(C)c(C)c3c2N)cc1,130,83.7,–,–
COc1ccc(CNC(=O)c2sc3nnc(C)c(C)c3c2N)cn1,239,76.9,–,–
COc1ccc([C@@H](C)NC(=O)c2sc3nnc(C)c(C)c3c2N)cc1F,> 10000,–,–,< 5
COc1c(F)cc(CNC(=O)c2sc3nnc(C)c(C)c3c2N)cc1F,84.1,75.3,–,–
COc1ccc(CNC(=O)c2sc3nnc(C)c(C)c3c2N)c(F)c1,90.6,75.5,–,–
COc1ccc([C@H](C)NC(=O)c2sc3nnc(C)c(C)c3c2N)cc1F,508,62.4,–,–
COc1ncc(CNC(=O)c2sc3nnc(C)c(C)c3c2N)cc1F,142,80.8,–,–
